Here are results for 4 compounds from patent publication US20130338190A1, “PHARMACEUTICALLY ACCEPTABLE SALT OF (E)-N-[4-[[3-CHLORO-4-(2-PYRIDYLMETHOXY)PHENYL]AMINO]-3-CYANO-7-ETHOXY-6-QUINOLYL]-3-[(2R)-1-METHYLPYRROLIDIN-2-YL]PROP-2-ENAMIDE, PREPARATION METHOD THEREOF, AND MEDICAL USE THEREOF” (priority 2011, published 2013).

Data set [1] can be described thus: Solubility assay. The data set is classed as physicochemical. The procedure:
According to the conventional solubility measurement, the solubility of a compound of formula (I) and salts thereof was determined in three different systems: water, physiological saline and methanol.

In data set [2] the test system is human carcinoma SK-BR-3 cells, which have high expression of HER-2. Description: HER-2 cell activity assay (SRB, 96 hours). Format: cell-based. To be noted: read-out: IC50 (HER-2/SK-BR-3). The source says: The following in vitro assay was to determine the activity of the compounds of the present invention for inhibiting the proliferation of human carcinoma SK-BR-3 cells, which have high expression of HER-2.
The following in vitro assay was to determine the activity of the test compounds for inhibiting the angiogenesis and proliferation of cancer cells, which have high expression of HER-2. The activity is represented by the IC50 value. The general procedure of the assay was as follows: the cancer cells line SK-BR-3 highly expressing HER-2 was chosen and the cells were seeded in a 96-well cell culture plate at a suitable density. The cells then were incubated in a carbon dioxide incubator until they reached 60% confluence. Then, the cell culture medium was replaced by fresh medium with the test compounds at various concentrations (6 to 7 concentrations). The cells were put back in the incubator and cultured continuously for 96 hours. The activity of the test compounds for inhibiting the cell proliferation was determined by using a Sulforhodamine B (SRB) method. IC50 values of test cells were calculated by the rate of inhibition at various concentrations of the test compounds.

Data set [3] is described as follows: Solubility assay. To be noted: for solubility: 0.1 M hydrochloric acid, simulated gastric fluid. The data set is classed as physicochemical.
Data set [4] deals with HER-2 kinase (Homo sapiens, UniProt P04626). The experiment in a line: HER-2 kinase activity assay (time-resolved fluorescence). The data set is classed as biochemical. The following applies: table of the HER-2 kinase activity assay; human-derived recombinant HER-2 kinase, 20 μM ATP, 25° C., 45 minutes; read-out: IC50 (HER-2/SK-BR-3). The method, then:
The in vitro HER-2 kinase activity was tested by the following assay.
The following assay was used to determine the activity of the compounds of the present invention for inhibiting HER-2 kinase. The half maximal inhibitory concentration IC50 (the concentration of the test compound showing 50% inhibition of the enzyme activity) of each compound was determined by incubating several different concentrations of the test compounds with a specific enzyme and substrate. […] The HER-2 kinase activity was determined by using a time-resolved fluorescence method.

The subject of data set [5] is human epidermoid carcinoma A431 cells, which have high expression of EGFR. The experiment in a line: EGFR cell proliferation inhibition assay (SRB, 72 hours). Format: cell-based. The following applies: A431 cells, 72 hours, SRB, read-out: IC50 (EGFR/A431). The method, then: The activity is represented by the IC50 value. The general procedures of the assay were as follows: the cancer cells A431 highly expressing EGFR were chosen and seeded in a 96-well cell culture plate at a suitable density (e.g., 5000 cells/mL medium). The cells were then incubated in a carbon dioxide incubator until they reached 85% confluence. Then, the cell culture medium was replaced by fresh medium containing the test compounds with serial dilutions (general 6 to 7 concentrations). The cells were put back in the incubator and cultured continuously for 72 hours. The activity of the test compounds for inhibiting the cell proliferation was determined by using a Sulforhodamine B (SRB) method. IC50 values were calculated by the rate of inhibition at various concentrations of the test compounds.

Data set [6] in a line: Pharmacokinetics assay in rats (LC/MS/MS of plasma). Format: in vivo, Sprague Dawley (SD) rats. The following applies: both sexes, Sprague-Dawley, rat, plasma, 25 mg/kg; for AUC(0-t): read-out: AUC0-t; for MRT: read-out: MRT; for Cmax: read-out: Cmax; for Vd/F: read-out: Vz/F; for bioavailability: oral absolute bioavailability, 25 mg/kg (calculated by the base part). The method, then: The rats were used as test animals. The compound of formula (I) and other salts thereof were administrated intragastrically, and a maleate salt of the compound of formula (I) was injected into the tail vein to determine the drug concentration in plasma at different time points by an LC/MS/MS method. The pharmacokinetic behavior, characteristics and the oral absolute bioavailability of the present compounds were studied and evaluated in rats. […] 28 healthy adult Sprague Dawley (SD) rats, half male and half female, were purchased from SINO-BRITSH SIPPR/BK LAB. ANIMAL LTD., CO, License number: SCXK (Shanghai) 2008-0016, and divided into 7 groups (4 rats in each group). The intravenous injection group: a suitable amount of compounds was weighed, dissolved in DMSO and diluted with normal saline to the final volume. […] healthy adult SD rats, half male and half female, were divided into 7 groups (4 rats in each group). […] For the intravenous injection group, blood samples (0.2 mL) were taken from orbital sinus before administration and at 2 min, 15 min, 30 min, 1.0 […] and 36.0 h after administration, stored in heparinized tubes and centrifuged for 10 minutes at 3,500 rpm to separate blood plasma. The plasma samples were stored at -20° C. For the intragastrical administration group, blood samples were taken before administration and at 0.5, 1.0, 2.0, 3.0, 4.0, 6.0, 8.0, 12.0, 24.0 and 36.0 hours after administration. The method to treat the samples was the same as with the intravenous injection group. The rats were fed 2 hours after administration.

The mark [7] stands for this setting: physiological saline, saline or isotonic, physiological saline, read-out: Solubility Value, Physiological saline.
Where [8] appears, read: water, read-out: Solubility Value, Water.

Structures can show the parent of a compound that is named as a salt. Where two headings read alike, the source gives them in different places.

Sequence of HER-2 kinase (P04626 23-1255): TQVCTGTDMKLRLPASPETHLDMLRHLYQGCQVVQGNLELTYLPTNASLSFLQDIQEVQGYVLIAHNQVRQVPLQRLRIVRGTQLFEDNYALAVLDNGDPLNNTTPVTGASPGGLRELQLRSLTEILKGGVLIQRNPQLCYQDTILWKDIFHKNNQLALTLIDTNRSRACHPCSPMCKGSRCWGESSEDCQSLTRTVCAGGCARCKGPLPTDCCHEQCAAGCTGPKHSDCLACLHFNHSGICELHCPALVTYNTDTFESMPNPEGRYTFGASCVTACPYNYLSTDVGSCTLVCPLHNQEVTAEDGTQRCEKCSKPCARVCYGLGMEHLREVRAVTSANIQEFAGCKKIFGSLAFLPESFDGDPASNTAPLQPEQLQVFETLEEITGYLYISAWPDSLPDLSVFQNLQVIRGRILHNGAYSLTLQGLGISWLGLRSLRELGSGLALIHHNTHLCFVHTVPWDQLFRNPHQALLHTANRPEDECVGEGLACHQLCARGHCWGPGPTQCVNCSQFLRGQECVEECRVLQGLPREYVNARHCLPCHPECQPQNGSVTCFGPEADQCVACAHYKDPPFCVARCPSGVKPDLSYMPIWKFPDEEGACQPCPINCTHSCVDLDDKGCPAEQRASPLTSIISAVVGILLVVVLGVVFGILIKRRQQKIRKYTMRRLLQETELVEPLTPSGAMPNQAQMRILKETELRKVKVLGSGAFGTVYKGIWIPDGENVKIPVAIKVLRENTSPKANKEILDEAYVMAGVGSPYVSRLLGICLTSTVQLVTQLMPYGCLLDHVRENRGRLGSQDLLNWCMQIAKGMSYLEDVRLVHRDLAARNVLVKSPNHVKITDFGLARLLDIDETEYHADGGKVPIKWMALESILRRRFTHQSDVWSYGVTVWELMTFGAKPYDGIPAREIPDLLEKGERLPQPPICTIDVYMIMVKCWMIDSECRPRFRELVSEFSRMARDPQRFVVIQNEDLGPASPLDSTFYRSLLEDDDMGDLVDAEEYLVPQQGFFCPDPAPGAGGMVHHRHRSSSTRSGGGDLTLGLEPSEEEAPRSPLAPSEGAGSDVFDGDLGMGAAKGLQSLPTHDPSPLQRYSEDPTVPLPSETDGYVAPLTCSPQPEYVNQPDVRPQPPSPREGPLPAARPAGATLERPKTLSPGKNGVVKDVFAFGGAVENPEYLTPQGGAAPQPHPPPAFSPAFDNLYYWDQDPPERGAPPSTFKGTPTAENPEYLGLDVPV

For the compound `CCOc1cc2ncc(C#N)c(Nc3ccc(OCc4ccccn4)c(Cl)c3)c2cc1NC(=O)/C=C/[C@H]1CCCN1C.O=C(O)C[C@H](O)C(=O)O` [Example 3, (E)-N-[4-[[3-chloro-4-(2-pyridylmethoxy)phenyl]amino]-3-cyano-7-ethoxy-6-quinolyl]-3-[(2R)-1-methylpyrrolidin-2-yl]prop-2-enamide L-malate], the solubility in data set [1] (setting [7]) was 0.08 mg/mL; in data set [1] (setting [8]), 17.2 mg/mL; in data set [3], 12.7 mg/mL. The IC50 in data set [2] (L-malate) was found to be 0.056 µM; in data set [4], 0.071 µM; in data set [5] (L-malate), 0.029 µM.
Turning to `CCOc1cc2ncc(C#N)c(Nc3ccc(OCc4ccccn4)c(Cl)c3)c2cc1NC(=O)/C=C/[C@H]1CCCN1C.Cc1ccc(S(=O)(=O)O)cc1` [Example 7, (E)-N-[4-[[3-chloro-4-(2-pyridylmethoxy)phenyl]amino]-3-cyano-7-ethoxy-6-quinolyl]-3-[(2R)-1-methylpyrrolidin-2-yl]prop-2-enamide p-toluenesulfonate], in data set [6] (iv, vein (tail vein injection)), the half-life was 3.12 ± 0.37 h, the AUC(0-t) stood at 113000 ± 62100 ng·h/mL and the MRT is 4.2 ± 0.99 h. Besides, in data set [6] (po, gavage), the CL/F is 10.5 mL/min/kg, the half-life was 3.52 ± 0.69 h, the AUC(0-t) is 44300 ± 16000 ng·h/mL and the Cmax amounted to 5160 ± 1640 ng/mL. For the same compound, in data set [6] (po, gavage), the MRT turned out to be 7.9 ± 0.74 h and the Vd/F worked out at 3.23 ± 1.65 L/kg. Further, the bioavailability in data set [6] (po) is 39.2%. Moreover, the solubility in data set [1] (setting [7]) was determined as 0.1 mg/mL. Further, the solubility in data set [1] (setting [8]) is 5.39 mg/mL. Moreover, the IC50 in data set [2] (p-toluenesulfonate) was found to be 0.045 µM. The compound also gave a solubility in data set [3] of 31.9 mg/mL. Moreover, the IC50 in data set [4] was 0.064 µM. Besides, the IC50 in data set [5] (p-toluenesulfonate) came to 0.038 µM.
Consider `CCOc1cc2ncc(C#N)c(Nc3ccc(OCc4ccccn4)c(Cl)c3)c2cc1NC(=O)/C=C/[C@H]1CCCN1C.O=C(O)CCC(=O)O` [Example 8, (E)-N-[4-[[3-chloro-4-(2-pyridylmethoxy)phenyl]amino]-3-cyano-7-ethoxy-6-quinolyl]-3-[(2R)-1-methylpyrrolidin-2-yl]prop-2-enamide succinate], for which the results for the solubility in data set [1] (setting [7]), in data set [1] (setting [8]) and in data set [3] were 3.32 mg/mL, 22.4 mg/mL and 32.4 mg/mL, respectively. The IC50 in data set [2] (succinate) amounted to 0.078 µM; in data set [4], 0.053 µM; in data set [5] (succinate), 0.015 µM.
In the case of `CCOc1cc2ncc(C#N)c(Nc3ccc(OCc4ccccn4)c(Cl)c3)c2cc1NC(=O)/C=C/[C@H]1CCCN1C` [Example 9, (E)-N-[4-[[3-chloro-4-(2-pyridylmethoxy)phenyl]amino]-3-cyano-7-ethoxy-6-quinolyl]-3-[(2R)-1-methylpyrrolidin-2-yl]prop-2-enamide dihydrochloride], in data set [6] (iv, vein (tail vein injection)), the half-life was 4.75 ± 0.32 h, the AUC(0-t) was found to be 115000 ± 33100 ng·h/mL and the MRT was determined as 5.54 ± 0.58 h. In addition, in data set [6] (po, gavage), the CL/F was 6.67 mL/min/kg, the half-life is 3.47 ± 0.18 h, the AUC(0-t) is 66100 ± 17200 ng·h/mL and the Cmax turned out to be 5870 ± 1610 ng/mL. In addition, in data set [6] (po, gavage), the MRT amounted to 7.96 ± 0.7 h and the Vd/F came to 1.99 ± 0.49 L/kg. For the same compound, the bioavailability in data set [6] (po) was 57.6%. Moreover, the “Solubility Value, Physiological saline” value in data set [1] (physiological saline, dihydrochloride) was 0.2 mg/mL. Besides, in data set [1] (water, dihydrochloride), the “Solubility Value, Water” value was found to be 0.15 mg/mL. The IC50 in data set [2] (dihydrochloride) worked out at 0.069 µM. Also, the “Solubility Value, 0.1M Hydrochloric acid” value in data set [3] (0.1M hydrochloric acid, dihydrochloride) amounted to 16.59 mg/mL. Moreover, in data set [4], the IC50 came to 0.046 µM. Besides, the IC50 in data set [5] (dihydrochloride) was 0.049 µM.
